Results published in patent publication US7388002B2, “Nucleosides, preparation thereof and use as inhibitors of RNA viral polymerases” (BioCryst Pharmaceuticals, Inc., priority 2001, dated 2008).

Each molecule was assayed on stably HCV RNA-replicating cell line, AVA5 (assay: Antiviral Activity (HCV Replicon Assay)). Conditions: intracellular HCV RNA levels (blot hybridization, normalized to B-actin RNA) in AVA5 cells (Huh7-derived), compound once daily for three days, read 24 hours after last dose.
Format: cell-based
Method: HCV NS5B Polymerase Assay
Antiviral activity of the test compounds is assessed (Okuse et al., Antiviral Res. 2005, 65, 23-34) in the stably HCV RNA-replicating cell line, AVA5, derived by transfection of the human hepatoblastoma cell line, Huh7 (Blight et al., Sci. 2000, 290, 1972). Compounds are added to dividing cultures once daily for three days. Media is changed with each addition of compound. Cultures generally start the assay at 30-50% confluence and reach confluence during the last day of treatment. Intracellular HCV RNA levels and cytotoxicity are assessed 24 hours after the last dose of compound.
Triplicate cultures for HCV RNA levels (on 48-well and 96-well plates) and cytotoxicity (on 96-well plates) are used. A total of six untreated control cultures, and triplicate cultures treated with α-interferon and ribavirin serve as positive antiviral and toxicity controls.
Intracellular HCV RNA levels are measured using a conventional blot hybridization method in which HCV RNA levels are normalized to the levels of B-actin RNA in each individual culture (Okuse et al., Antivir. Res. 2005, 65, 23-34). Cytotoxicity is measured using a neutral red dye uptake assay (Korba and Gerin, Antivir. Res. 1992, 19, 55). HCV RNA levels in the treated cultures are expressed as a percentage of the mean levels of RNA detected in untreated cultures.

SMILES | % Inhibition at 10 μM
CC(C)(C)OC(=O)COP(=O)(COCCC(CN)n1cnc2c(N)ncnc21)OCC(=O)OC(C)(C)C (racemic) [Compound 34d, (±)-9-[(1-Aminomethyl)(3-(di-tert-butyloxycarbonylmethylphosphono)methoxy)propyl]-adenine] | 60%
CC(C)(C)OC(=O)COP(=O)(COCCC(CCO)n1cnc2c(N)ncnc21)OCC(=O)OC(C)(C)C (racemic) [Compound 34e, (±)-9-[(1-(2-Hydroxy)ethyl)(3-(di-tert-butyloxycarbonylmethylphosphono)methoxy)propyl]-adenine] | 41%
CC(O)CC(COCP(=O)(OCOC(=O)C(C)(C)C)OCOC(=O)C(C)(C)C)n1cnc2c(N)ncnc21 (racemic) [Compound 56f, (±)-9-[1-[(Di-tert-butylcarbonyloxymethylphosphonomethoxy)methyl][(3-hydroxy)butyl]adenine] | 62%
CC(C)(C)OC(=O)COP(=O)(COCCC(CO)n1cnc2c(NC3CCCC3)ncnc21)OCC(=O)OC(C)(C)C (racemic) [Compound 73k, (±)-9-[(1-Hydroxymethyl)(3-(di-tert-butyloxycarbonylmethylphosphono)methoxy)propyl]-6-cyclopentylaminopurine] | 36%
CC(C)(C)OC(=O)COP(=O)(COCCC(CO)n1cnc2c(-c3ccccc3)ncnc21)OCC(=O)OC(C)(C)C (racemic) [Compound 76a, (±)-9-[(1-Hydroxymethyl)(3-(di-tert-butyloxycarbonylmethylphosphono)methoxy)propyl]-6-phenylpurine] | 35%
CC(C)(C)OC(=O)COP(=O)(COCCC(CO)n1cnc2c(-c3ccsc3)ncnc21)OCC(=O)OC(C)(C)C (racemic) [Compound 76b, (±)-9-[(1-Hydroxymethyl)(3-(di-tert-butyloxycarbonylmethylphosphono)methoxy)propyl]-6-(3-thiophenyl)purine] | 18%
CC(O)C(COCP(=O)(OCC(=O)OC(C)(C)C)OCC(=O)OC(C)(C)C)n1cnc2c(-c3ccccc3)ncnc21 (racemic) [Compound 79a, (±)-9-[(1-Hydroxyethyl)(3-(di-tert-butyloxycarbonylmethylphosphono)methoxy)ethyl]-6-phenylpurine] | 48%
C=C(CCOCP(=O)(OCC(=O)OC(C)(C)C)OCC(=O)OC(C)(C)C)n1cnc2c(N)ncnc21 [Compound 34h, (±)-9-[(1-Methylene)(3-(di-tert-butyloxycarbonylmethylphosphono)methoxy)propyl]-adenine] | 35%
